This passage reports melting point and Ki results from US7071212B2, “N-(4-carbamimidoyl-phenyl)-glycine derivatives” (Hoffmann-La Roche Inc., priority 1998, dated 2006).

Broadly, the melting point is the temperature of the solid-liquid transition. As usually defined, the Ki is the dissociation constant of the complex between target and ligand, obtained from inhibition or displacement.

Series [1] deals with T1, factor VIIa/tissue factor complex (Homo sapiens, UniProt P08709).
T1 construct: 9 nM of soluble factor VIIa
T1 sequence (P08709 213-466 limits assumed): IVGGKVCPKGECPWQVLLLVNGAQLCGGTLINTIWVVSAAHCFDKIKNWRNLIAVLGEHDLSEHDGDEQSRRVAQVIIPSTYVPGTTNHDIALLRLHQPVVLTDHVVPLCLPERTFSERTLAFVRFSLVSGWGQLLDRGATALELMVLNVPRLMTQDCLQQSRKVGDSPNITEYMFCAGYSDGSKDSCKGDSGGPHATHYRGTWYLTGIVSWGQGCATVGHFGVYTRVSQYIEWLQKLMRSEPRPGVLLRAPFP
T1 sequence (P08709 61-212 partner limits assumed): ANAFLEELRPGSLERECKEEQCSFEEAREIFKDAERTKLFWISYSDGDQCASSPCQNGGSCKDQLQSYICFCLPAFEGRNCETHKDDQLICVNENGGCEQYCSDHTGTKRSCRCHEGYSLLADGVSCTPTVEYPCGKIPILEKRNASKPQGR
T1 sequence (P13726 33-295 partner): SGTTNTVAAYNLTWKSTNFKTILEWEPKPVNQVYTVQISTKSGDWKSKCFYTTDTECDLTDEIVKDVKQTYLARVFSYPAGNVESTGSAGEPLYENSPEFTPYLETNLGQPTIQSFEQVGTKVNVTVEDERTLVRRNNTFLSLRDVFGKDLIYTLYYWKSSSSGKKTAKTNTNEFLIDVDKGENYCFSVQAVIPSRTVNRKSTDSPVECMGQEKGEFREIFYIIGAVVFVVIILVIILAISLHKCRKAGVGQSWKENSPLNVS
Kind of series: inhibition of the amidolytic activity of factor VIIa/tissue factor complex (chromogenic peptide substrate). The series is classed as biochemical. Conditions: 26 nM tissue factor, 9 nM soluble factor VIIa, 8 mM calcium chloride, substrate Chromozym-tPA, pH 7.5, room temperature. How it is done: The measurements were carried out on microtitre plates at room temperature. To this end, 100 μl of a solution of 26 nM of tissue factor, 9 nM of soluble factor VIIa and 8 mM of calcium chloride were added to 25 μl of a solution of the inhibitor in a buffer [pH 7.5, 100 mM, comprising 0.14M NaCl, 0.1M N-(2-hydroxyethyl)piperazine-N′-(2-ethanesulphonic acid) (HEPES), 0.5 mg/l of fatty-acid-free BSA (bovine serum albumin) and 0.05% NaN3] in each well of the plate. After an incubation time of 15 minutes the reaction was started by the addition of 50 μl of chromogenic substrate Chromozym-tPA (3.5 mM, MeSO2-D-Phe-Gly-Arg-paranitroanilide) and the hydrolysis of the substrate was followed spectrophotometrically on a kinetic microtitre plate reader over 10 minutes. Using the plot of the inhibition curves, the Ki values were determined according to the method described in Biochem. J. 55, 1953, 170–171. The results will be evident from the following Table (Ki in μM/l): […]

In turn, `[H]/N=C(\NO)c1ccc(NC(C(=O)OC)c2cc(OC)c(OC)cc2OCc2cccc(C(=O)OC)c2)cc1` (racemic) [Example 52.3, methyl (Z)-(RS)-3-(2-{[4-(N-hydroxycarbamimidoyl)-phenylamino]-methoxycarbonyl-methyl}-4,5-dimethoxy-phenoxymethyl)-benzoate] displayed a melting point of 173 °C.
On to `COc1cc(OC)c(OCC(=O)O)c(C(Nc2ccc(C(=N)N)cc2)C(=O)O)c1` (racemic) [Example 15, (RS)-(4-carbamimidoyl-phenylamino)-(2-carboxymethoxy-3,5-dimethoxy-phenyl)-acetic acid], for which the Ki in series [1] came out at 84 nM.
As for `COc1ccc(OCC(=O)O)c(C(Nc2ccc(C(=N)N)cc2)C(=O)O)c1` (racemic) [Example 43.4, (RS)-(4-carbamimidoyl-phenylamino)-(2-carboxymethoxy-5-methoxy-phenyl)-acetic acid], the melting point came out at 213 °C.
On the same count and under the same terms, for `CCOc1ccc(OCCCCC(=O)O)c(C(Nc2ccc(C(=N)N)cc2)C(=O)O)c1` (racemic) [Example 45.4, (RS)-5-{2-[(4-carbamimidoyl-phenylamino)-carboxy-methyl]-4-ethoxy-phenoxy}-pentanoic acid] the value was 260 °C.
`CCCc1cc(C)cc(C(Nc2ccc(C(=N)N)cc2)C(=O)O)c1OCCO` (racemic) [Example 56.5, (RS)-(4-carbamimidoyl-phenylamino)-[2-(2-hydroxy-ethoxy)-5-methyl-3-propyl-phenyl]-acetic acid] registered a melting point of 240 °C.
Same read-out and setting: for `C=CCc1cc(C)cc(C(Nc2ccc(C(=N)N)cc2)C(=O)O)c1OCCO` (racemic) [Example 57.4, (RS)-[3-allyl-2-(2-hydroxy-ethoxy)-5-methyl-phenyl]-(4-carbamimidoyl-phenylamino)-acetic acid] the value was 228 °C.
Take `N=C(N)c1ccc(NC(C(=O)O)c2cccc(OCc3ccccc3)c2)cc1` (racemic) [Example 39.4, (RS)-(3-benzyloxy-phenyl)-(4-carbamimidoyl-phenylamino)-acetic acid]: the melting point amounted to 306 °C.
On to `CCOc1ccc(OCC(N)=O)c(C(Nc2ccc(C(=N)N)cc2)C(=O)O)c1` (racemic) [Example 48.5, (RS)-(4-carbamimidoyl-phenylamino)-(2-carbamoylmethoxy-5-ethoxy-phenyl)-acetic acid], for which the melting point was 266 °C.
Same read-out and setting: for `COc1ccc(OC)c(C(Nc2ccc(C(=N)N)cc2)C(=O)O)c1` (racemic) [Example 41.4, (RS)-(4-carbamimidoyl-phenylamino)-(2,5-dimethoxy-phenyl)-acetic acid] the value was 310 °C.
As for `CCOc1ccc(OCCOC)c(C(Nc2ccc(C(=N)N)cc2)C(=O)O)c1` (racemic) [Example 46.4, (RS)-(4-carbamimidoyl-phenylamino)-[5-ethoxy-2-(2-methoxy-ethoxy)-phenyl]-acetic acid], the melting point is 275 °C.
For the molecule `COc1cc(OCC(=O)O)c(C(Nc2ccc(C(=N)N)cc2)C(=O)O)cc1OC` (racemic) [Example 17, (RS)-(4-carbamimidoyl-phenylamino)-(2-carboxymethoxy-4,5-dimethoxy-phenyl)-acetic acid], the Ki in series [1] stood at 38.5 nM.
`N=C(N)c1ccc(NC(C(=O)O)c2ccccc2OCC(=O)O)cc1` (racemic) [Example 40.3, (RS)-(4-carbamimidoyl-phenylamino)-(2-carboxymethoxy-phenyl)-acetic acid]: the melting point worked out at 223 °C.
In turn, `CCCc1cc(C)c(OCCO)c(C(Nc2ccc(C(=N)N)cc2)C(=O)O)c1` (racemic) [Example 58.5, (RS)-(4-carbamimidoyl-phenylamino)-[2-(2-hydroxy-ethoxy)-3-methyl-5-propyl-phenyl]-acetic acid] came in with a melting point of 230 °C.
